In US4390540A, “Imidazoquinazolines having pharmaceutical activity” (Hoffmann-La Roche Inc., priority 1980, dated 1983):
Where two headings read alike, the source gives them in different places.

Experiments:
[1] = system: left ventricular pressure (LVP); assay: Positive inotropic activity (dLVP/dtmax) in conscious sheep dogs; type: in vivo; details: oral; for change in vivo at 3 mg/kg / change in vivo at 1 mg/kg / change in vivo at 10 mg/kg: Canis lupus familiaris, read-out: Inotropy Δ% (percentage variation of dLVP/dtmax)
Description: (§1) The positive inotropic activity was measured after the oral administration of the test substances to conscious sheep dogs. For this purpose, the animals are provided with an implanted pressure-telemetry system, whereby the pressure receiver is fixed in the left ventricle. The left ventricular pressure is sent from the animal via the implanted radio transmitter and received via a suitable antenna and receiving system, demodulated and amplified. By differentiation of the ascending side of the left ventricular pressure (LVP), there is calculated the maximum pressure increase rate (dLVP/dtmax) which represents the contractility parameter. Simultaneously, the heart frequency is recorded via a cardiotachograph. Under inotropy there are indicated the percentage variation (Δ%) of dLVP/dtmax and the duration of activity in hours (Hrs.). Under tachycardia there are indicated the percentage variations of the heart frequency (Δ%) after administration of the test substance and the duration of activity in hours (Hrs.).

heart frequency = assay: Heart frequency (tachycardia) in conscious sheep dogs; type: in vivo; details: oral
Description: as §1

[2] = system: Human platelet-rich plasma; assay: Collagen-induced blood platelet aggregation (aggregometer method of Born); type: cell-based; details: 10 min; human platelet-rich citrate plasma, 37° C., 10 minutes incubation, collagen fibrils; read-out: EC50 (collagen-induced blood platelet aggregation, maximum aggregation velocity)
Description: The maximum aggregation velocity was taken as the test parameter, and the effective concentration (EC50) was ascertained from dosage-activity curves. Human platelet-rich plasma was obtained by centrifugation from citrated venous blood. The experiments were carried out with suspensions of the test substances in 0.9% sodium chloride. 0.18 ml of citrate plasma was treated with a 10 μl suspension of the test compounds and incubated at 37° C. for 10 minutes, whereupon the aggregation was initiated by the addition of 10 μl of a suspension of collagen fibrils.

gastric acid secretion = assay: Gastric acid secretion inhibition in pylorus-ligated rats (Shay); type: in vivo; details: Rattus norvegicus, intraduodenally, female rats, 4 hours
Description: The experimental procedure described hereinafter was used to determine the gastric acid secretion-inhibiting activity. More specifically, the pylorus of female rats, which had received no food for 24 hours, but which had received water ad libitum, is ligatured under slight ether narcosis in accordance with Shay et al. [Gastroenterology 5, 43 (1945)]. Immediately thereafter the substance to be tested is administered intraduodenally to the animals. Four hous later the animals are killed, the volume and the acidity of their gastric juice are determined and the values obtained are compared with those of control animals which were treated similarly, but which received no test substance. The ED 50 is that dosage of test substance which brings about a 50% decrease in volume (ED 50 volume) or acidity (ED 50 acidity) of the gastric juice in the treated animals compared with the control animals.

Structure (SMILES)	Inotropy Hrs (duration of activity) ([1]; 3 mg/kg) [h]	change in vivo at 3 mg/kg ([1]; 3 mg/kg) [%]	Heart frequency Hrs. (duration of activity) (heart frequency; 3 mg/kg) [h]	Heart frequency Δ% (percentage variation) (heart frequency; 3 mg/kg)	Inotropy Hrs (duration of activity) ([1]; 1 mg/kg) [h]	change in vivo at 1 mg/kg ([1]; 1 mg/kg) [%]	Heart frequency Hrs. (duration of activity) (heart frequency; 1 mg/kg) [h]	Heart frequency Δ% (percentage variation) (heart frequency; 1 mg/kg)	Inotropy Hrs (duration of activity) ([1]; 10 mg/kg) [h]	change in vivo at 10 mg/kg ([1]; 10 mg/kg) [%]	Heart frequency Hrs. (duration of activity) (heart frequency; 10 mg/kg) [h]	Heart frequency Δ% (percentage variation) (heart frequency; 10 mg/kg)	EC50 [2] [µM]	ED50 (gastric acid secretion; read-out: ED 50 acidity (50% decrease in acidity of the gastric juice)) [mg/kg]	ED50 (gastric acid secretion; read-out: ED 50 volume (50% decrease in volume of the gastric juice)) [mg/kg]
Cl.O=C1CN2C(=N1)NCc1ccccc12 [4,5-dihydroimidazo[1,2-a]quinazolin-2(1H)-one hydrochloride]	4	79	2.5	+4%											
CC1C(=O)N=C2NCc3c(ccc(Cl)c3Cl)N21.Cl (stereo not shown) [6,7-dichloro-1-methyl-4,5-dihydroimidazo[1,2-a]quinazolin-2(1H)-one hydrochloride]	8	48	8	+16%											
Cl.O=C1CN2C(=N1)NCc1c2ccc(Cl)c1Cl [6,7-dichloro-4,5-dihydroimidazo[1,2-a]quinazolin-2(1H)-one hydrochloride]					7.5	44	7	+22%							
Cc1ccc2c(c1C)CNC1=NC(=O)CN12.Cl [6,7-dimethyl-4,5-dihydroimidazo[1,2-a]quinazolin-2(1H)-one hydrochloride]									6	18	6	+3%			
Cl.O=C1CN2C(=N1)NCc1c(Cl)cccc12 [6-chloro-4,5-dihydroimidazo[1,2-a]quinazolin-2(1H)-one hydrochloride]									7	78	6	+77%	12.3	10	15
COc1ccc2c(c1Cl)CNC1=NC(=O)CN12.Cl [6-chloro-7-methoxy-4,5-dihydroimidazo[1,2-a]quinazolin-2(1H)-one hydrochloride]	7	32	6	+20%	1	10	5	+47%	7	60	7	+45%			
Cc1cccc2c1CNC1=NC(=O)CN12.Cl [6-methyl-4,5-dihydroimidazo[1,2-a]quinazolin-2(1H)-one hydrochloride]	4.5	32	5	-12%	2	15	3.5	-7%							
Cc1c(Br)ccc2c1CNC1=NC(=O)CN12.Cl [7-bromo-6-methyl-4,5-dihydroimidazo[1,2-a]quinazolin-2(1H)-one hydrochloride]	5.5	16	4	0%	2.5	8	4	+10%	8	120	8	+59%	35		
Cl.O=C1CN2C(=N1)NCc1cc(Cl)ccc12 [7-chloro-4,5-dihydroimidazo[1,2-a]quinazolin-2(1H)-one hydrochloride]									3.5	17	3	+13%			
Cc1c(Cl)ccc2c1CNC1=NC(=O)CN12.Cl [7-chloro-6-methyl-4,5-dihydroimidazo[1,2-a]quinazolin-2(1H)-one hydrochloride]	1	7	3	+6%	6	27	5	+4%	6	50	6	+31%			
COc1ccc2c(c1)CNC1=NC(=O)CN12.Cl [7-methoxy-4,5-dihydroimidazo[1,2-a]quinazolin-2(1H)-one hydrochloride]									7	67	6.5	+50%			
Cc1ccc2c(c1)CNC1=NC(=O)CN12.Cl [7-methyl-4,5-dihydroimidazo[1,2-a]quinazolin-2(1H)-one hydrochloride]	2	33	1	+6%											
Cc1cccc2c1N1CC(=O)N=C1NC2.Cl [9-methyl-4,5-dihydroimidazo[1,2-a]quinazolin-2(1H)-one hydrochloride]	6.5	18	6	-8%	2.5	27	5.5	-19%							
